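Growth conditions: 96-well plates. Treatment: test compound, 48 hours, 5 concentrations. Analysis: linear interpolation between bracketing concentrations; unreached endpoints set to highest concentration. GI50 = concentration required for 50% inhibition of growth. At the TGI there is no net growth.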
What was measured:
Assay in all cases: NCI tumour cell line growth inhibition, 48 h
[1] = tested on: MALME-3M melanoma
[2] = tested on: UACC-62 melanoma
[3] = tested on: HOP-92 NSCLC
[4] = tested on: NCI-H522 lung
[5] = tested on: OVCAR-5 ovarian
[6] = tested on: LOX IMVI melanoma
[7] = tested on: COLO 205 colon
[8] = tested on: OVCAR-8 ovarian
[9] = tested on: HOP-62 NSCLC
[10] = tested on: CCRF-CEM leukemia

SMILES | TGI [1] | TGI [2] | TGI [3] | TGI [4] | TGI [5] | TGI [6] | TGI [7] | TGI [8] | TGI [9] | TGI [10] | GI50 [1] | GI50 [2] | GI50 [3] | GI50 [4] | GI50 [10] | GI50 [5] | GI50 [6] | GI50 [8] | GI50 [9] | GI50 [7]
CCCCOC(=O)C1CC[C@H]2[C@@H]3CCc4cc(OC(=O)c5cccc6c(=O)c7ccccc7[nH]c56)ccc4[C@H]3CC[C@]12C (some centres not stated) | 18.7 µM | 13.3 µM | 16.5 µM | 16.9 µM | 19.8 µM | 17.1 µM | 13.8 µM | 21.3 µM | 16.4 µM | – | – | – | – | – | – | – | – | – | – | –
Cc1ccc(C2(c3ccc(F)cc3)OC(=O)c3ccccc32)c(O)c1 (configuration not stated) | – | 23 µM | 34.9 µM | 35.9 µM | 28.5 µM | 26.9 µM | 41.6 µM | 48 µM | 28.8 µM | 94.2 µM | – | – | – | – | – | – | – | – | – | –
CC(Oc1ccccc1)C(=O)NNC(=O)OC(C)(C)C (configuration not stated) | > 100 µM | > 100 µM | > 100 µM | > 100 µM | > 100 µM | > 100 µM | > 100 µM | > 100 µM | > 100 µM | > 100 µM | – | – | – | – | – | – | – | – | – | –
O=C1/C(=C/c2ccc(O)cc2)COc2ccc(O)c(O)c21 | 4.58 µM | 4.36 µM | 7.25 µM | 0.596 µM | 7.26 µM | 3.22 µM | – | > 100 µM | > 100 µM | 8.53 µM | 1.76 µM | 1.99 µM | 2.33 µM | 0.187 µM | 0.652 µM | 2.64 µM | 1.47 µM | 3.51 µM | 3.98 µM | –
O=C(Cn1c(C(=O)c2ccccc2)nc2ccccc21)c1ccccc1 | > 100 µM | > 100 µM | > 100 µM | > 100 µM | > 100 µM | > 100 µM | > 100 µM | > 100 µM | > 100 µM | > 100 µM | – | – | – | – | – | – | – | – | – | –
Brc1cccc(C2ON=C(c3ccccc3)N2C23CC4CC(CC(C4)C2)C3)c1 (configuration not stated) | > 10 µM | > 10 µM | > 10 µM | > 10 µM | > 10 µM | > 10 µM | > 10 µM | > 10 µM | > 10 µM | > 10 µM | – | – | – | – | – | – | – | – | – | –
CNc1ncnc2c1nc(NC1CCCC1)n2C1OC(CO)C(O)C1O (configuration not stated) | > 100 µM | > 100 µM | > 100 µM | > 100 µM | > 100 µM | – | > 100 µM | > 100 µM | > 100 µM | – | – | – | – | – | – | – | – | – | – | –
Cc1c2c(n(CC(c3ccccc3)c3ccccc3)c1C)NN=C(C#N)S2(=O)=O | – | > 100 µM | > 100 µM | > 100 µM | > 100 µM | > 100 µM | > 100 µM | > 100 µM | > 100 µM | – | – | – | – | – | – | – | – | – | – | –
[N-]=[N+]=CC(=O)OCCCCl | > 100 µM | > 100 µM | > 100 µM | > 100 µM | > 100 µM | > 100 µM | > 100 µM | – | > 100 µM | > 100 µM | – | – | – | – | – | – | – | – | – | –
CC1(C)OC2OC(C(COS(=O)(=O)C(F)(F)F)N=[N+]=[N-])C(OC(=O)c3ccccc3)C2O1 (configuration not stated) | > 100 µM | > 100 µM | > 100 µM | – | > 100 µM | > 100 µM | > 100 µM | > 100 µM | > 100 µM | > 100 µM | – | – | – | – | – | – | – | – | – | –
Cc1ccc2c(c1)nc1n2C(N)=Nc2ccccc2S1 | > 100 µM | > 100 µM | > 100 µM | > 100 µM | > 100 µM | > 100 µM | > 100 µM | > 100 µM | > 100 µM | – | – | – | – | – | – | – | – | – | – | –
CN(CCNC(=O)c1c[nH]c2c1Cc1ccccc1-2)CCNC(=O)c1c[nH]c2c1Cc1ccccc1-2 | > 100 µM | 40.9 µM | > 100 µM | 97 µM | > 100 µM | > 100 µM | > 100 µM | > 100 µM | > 100 µM | – | – | – | – | – | – | – | – | – | – | –
C(#CP(c1ccccc1)c1ccccc1)P(C#CP(c1ccccc1)c1ccccc1)c1ccccc1 | > 100 µM | > 100 µM | > 100 µM | > 100 µM | > 100 µM | – | > 100 µM | > 100 µM | > 100 µM | > 100 µM | – | – | – | – | – | – | – | – | – | –
C=C=CC(NC(=O)c1ccccc1)(C(=O)O)C(F)(F)F (configuration not stated) | > 100 µM | – | > 100 µM | – | > 100 µM | > 100 µM | > 100 µM | > 100 µM | – | > 100 µM | – | – | – | – | – | – | – | – | – | –
OC1(c2ccc(Cl)cc2)c2ccccc2-c2nc3ccccc3n21 (configuration not stated) | – | > 100 µM | > 100 µM | > 100 µM | > 100 µM | > 100 µM | > 100 µM | > 100 µM | > 100 µM | > 100 µM | – | – | – | – | – | – | – | – | – | –
CCCCCCCCCCCCCC[n+]1ccc(C)cc1 | – | 2.57 µM | 3.3 µM | – | 5.18 µM | 1.36 µM | 2.67 µM | – | 2.61 µM | 5.11 µM | – | 1.08 µM | 0.577 µM | – | 0.818 µM | 1.14 µM | 0.35 µM | – | 1.27 µM | 1.22 µM
CC(C)=CC[C@]12CCN(C)[C@H]1N(S(=O)(=O)c1ccccc1)c1ccccc12 | > 100 µM | > 62 µM | > 79.9 µM | 41.8 µM | > 100 µM | > 51.6 µM | – | > 100 µM | > 77.6 µM | > 100 µM | – | – | – | – | – | – | – | – | – | –
Nc1nc(Cl)c(Cl)c(NCC2(O)CCC2)n1 | > 100 µM | > 100 µM | > 100 µM | 40.9 µM | > 100 µM | > 100 µM | – | > 100 µM | > 100 µM | > 100 µM | – | – | – | – | – | – | – | – | – | –
COc1ccc(-c2c(-c3ccccc3)c(C)nc3nc(SC)nc(SC)c23)cc1OC | 38.5 µM | 39.7 µM | 48.2 µM | 35.4 µM | > 100 µM | 33.2 µM | 27.9 µM | – | 40.5 µM | 23.5 µM | – | – | – | – | – | – | – | – | – | –
Cc1cc2nc3c(C#N)c4c(c(-c5ccc(Cl)cc5)n3c2cc1C)CCC4 | 46.8 µM | 33.9 µM | 50.7 µM | 35.4 µM | – | 90.6 µM | 39.1 µM | – | 46.2 µM | 70.7 µM | – | – | – | – | – | – | – | – | – | –

— PubChem BioAssay (NCI)
